Assay results reported in US11117900B2 (Vertex Pharmaceuticals Incorporated, priority 2012, dated 2021).

Test system: HCT116 colorectal cancer cells
Test: Cisplatin sensitization assay (96 h MTS cell viability);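 further: compound concentration needed to lower the IC50 of Cisplatin alone by a set fold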
Assay type: cell-based
Settings: Cisplatin sensitization value
Procedure, shortened: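 HCT116 cells were dosed simultaneously with compound and cisplatin as a full matrix of 2-fold serial dilutions from 10 μM top final concentration. Incubation was 96 h at 37° C., 5% CO2, followed by 1 h with MTS reagent for the viability read-out. Sensitization values were binned into +++, ++ and + categories.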

SMILES | Cisplatin Sensitization Assay
Cc1nccn1-c1ccncc1NC(=O)c1c(N)nn2cc(F)cnc12 [I-N-28, 2-amino-6-fluoro-N-(4-(2-methyl-1H-imidazol-1-yl)pyridin-3-yl)pyrazolo[1,5-a]pyrimidine-3-carboxamide] | +++ (Compounds with a Cisplatin sensitization value of <0.02 μM are marked with “+++.”)
Nc1nn2cc(Cl)cnc2c1C(=O)Nc1cnccc1-n1ccnc1 [I-N-29, N-(4-(1H-imidazol-1-yl)pyridin-3-yl)-2-amino-6-chloropyrazolo[1,5-a]pyrimidine-3-carboxamide] | ++ (Compounds with a Cisplatin sensitization value >0.02 μM but <0.2 μM are marked with “++.”)
Cc1nc(C(F)(F)F)cn1-c1ccncc1NC(=O)c1c(N)nn2cc(F)cnc12 [I-N-30, 2-amino-6-fluoro-N-(4-(2-methyl-4-(trifluoromethyl)-1H-imidazol-1-yl)pyridin-3-yl)pyrazolo[1,5-a]pyrimidine-3-carboxamide] | ++ (Compounds with a Cisplatin sensitization value >0.02 μM but <0.2 μM are marked with “++.”)
Nc1nn2cc(F)cnc2c1C(=O)Nc1cncc(C2CC2)c1N1CCN(C2COC2)CC1 [I-N-32, 2-amino-N-(5-cyclopropyl-4-(4-(oxetan-3-yl)piperazin-1-yl)pyridin-3-yl)-6-fluoropyrazolo[1,5-a]pyrimidine-3-carboxamide] | ++ (Compounds with a Cisplatin sensitization value >0.02 μM but <0.2 μM are marked with “++.”)
Nc1nn2cc(F)cnc2c1C(=O)Nc1cnccc1N1CCN(C2CC2)CC1 [I-N-33, 2-amino-N-(4-(4-cyclopropylpiperazin-1-yl)pyridin-3-yl)-6-fluoropyrazolo[1,5-a]pyrimidine-3-carboxamide] | + (Compounds with a Cisplatin sensitization value >0.2 μM but <5 μM are marked with “+.”)
CC(C)(C)N1CCN(c2ccncc2NC(=O)c2c(N)nn3cc(Cl)cnc23)CC1 [I-N-34, 2-amino-N-(4-(4-(tert-butyl)piperazin-1-yl)pyridin-3-yl)-6-chloropyrazolo[1,5-a]pyrimidine-3-carboxamide] | ++ (Compounds with a Cisplatin sensitization value >0.02 μM but <0.2 μM are marked with “++.”)
CN(C)[C@H]1CCN(c2ccncc2NC(=O)c2c(N)nn3cc(Cl)cnc23)C[C@@H]1O [I-N-35, 2-amino-6-chloro-N-(4-((3S,4S)-4-(dimethylamino)-3-hydroxypiperidin-1-yl)pyridin-3-yl)pyrazolo[1,5-a]pyrimidine-3-carboxamide] | + (Compounds with a Cisplatin sensitization value >0.2 μM but <5 μM are marked with “+.”)
CN(C)CC1(O)CCN(c2ccncc2NC(=O)c2c(N)nn3cc(Cl)cnc23)CC1 [I-N-36, 2-amino-6-chloro-N-(4-(4-((dimethylamino)methyl)-4-hydroxypiperidin-1-yl)pyridin-3-yl)pyrazolo[1,5-a]pyrimidine-3-carboxamide] | ++ (Compounds with a Cisplatin sensitization value >0.02 μM but <0.2 μM are marked with “++.”)
CN(C)C1CCN(c2ccncc2NC(=O)c2c(N)nn3cc(Cl)cnc23)CC1 [I-N-37, 2-amino-6-chloro-N-(4-(4-(dimethylamino)piperidin-1-yl)pyridin-3-yl)pyrazolo[1,5-a]pyrimidine-3-carboxamide] | ++ (Compounds with a Cisplatin sensitization value >0.02 μM but <0.2 μM are marked with “++.”)
Nc1nn2cc(F)cnc2c1C(=O)Nc1cncc(Cl)c1N1CCN2CCN(C3COC3)CC2C1 (stereo not drawn) [I-N-38, 2-amino-N-(5-chloro-4-(8-(oxetan-3-yl)hexahydro-1H-pyrazino[1,2-a]pyrazin-2(6H)-yl)pyridin-3-yl)-6-fluoropyrazolo[1,5-a]pyrimidine-3-carboxamide] | ++ (Compounds with a Cisplatin sensitization value >0.02 μM but <0.2 μM are marked with “++.”)
CC(C)N1CCN(c2ccncc2NC(=O)c2c(N)nn3cc(Cl)cnc23)CC1 [I-N-39, 2-amino-6-chloro-N-(4-(4-isopropylpiperazin-1-yl)pyridin-3-yl)pyrazolo[1,5-a]pyrimidine-3-carboxamide] | ++ (Compounds with a Cisplatin sensitization value >0.02 μM but <0.2 μM are marked with “++.”)
CN(C)C1CCCN(c2ccncc2NC(=O)c2c(N)nn3cc(Cl)cnc23)C1 (stereo not drawn) [I-N-40, 2-amino-6-chloro-N-(4-(3-(dimethylamino)piperidin-1-yl)pyridin-3-yl)pyrazolo[1,5-a]pyrimidine-3-carboxamide] | ++ (Compounds with a Cisplatin sensitization value >0.02 μM but <0.2 μM are marked with “++.”)
CN1CCN(c2c(Cl)cncc2NC(=O)c2c(N)nn3cc(Cl)cnc23)CC1 [I-N-41, 2-amino-6-chloro-N-(5-chloro-4-(4-methylpiperazin-1-yl)pyridin-3-yl)pyrazolo[1,5-a]pyrimidine-3-carboxamide] | +++ (Compounds with a Cisplatin sensitization value of <0.02 μM are marked with “+++.”)
CN1CCCN(c2ccncc2NC(=O)c2c(N)nn3cc(Cl)cnc23)CC1 [I-N-43, 2-amino-6-chloro-N-(4-(4-methyl-1,4-diazepan-1-yl)pyridin-3-yl)pyrazolo[1,5-a]pyrimidine-3-carboxamide] | ++ (Compounds with a Cisplatin sensitization value >0.02 μM but <0.2 μM are marked with “++.”)
Nc1nn2cc(Cl)cnc2c1C(=O)Nc1cnccc1N1CCn2ccnc2C1 [I-N-44, 2-amino-6-chloro-N-(4-(5,6-dihydroimidazo[1,2-a]pyrazin-7(8H)-yl)pyridin-3-yl)pyrazolo[1,5-a]pyrimidine-3-carboxamide] | ++ (Compounds with a Cisplatin sensitization value >0.02 μM but <0.2 μM are marked with “++.”)
CN(C)CC1CCN(c2ccncc2NC(=O)c2c(N)nn3cc(Cl)cnc23)CC1 [I-N-45, 2-amino-6-chloro-N-(4-(4-((dimethylamino)methyl)piperidin-1-yl)pyridin-3-yl)pyrazolo[1,5-a]pyrimidine-3-carboxamide] | ++ (Compounds with a Cisplatin sensitization value >0.02 μM but <0.2 μM are marked with “++.”)
COC1(CN(C)C)CCN(c2ccncc2NC(=O)c2c(N)nn3cc(Cl)cnc23)CC1 [I-N-46, 2-amino-6-chloro-N-(4-(4-((dimethylamino)methyl)-4-methoxypiperidin-1-yl)pyridin-3-yl)pyrazolo[1,5-a]pyrimidine-3-carboxamide] | +++ (Compounds with a Cisplatin sensitization value of <0.02 μM are marked with “+++.”)
COCC1CN(c2ccncc2NC(=O)c2c(N)nn3cc(Cl)cnc23)CCN1C (stereo not drawn) [I-N-47, 2-amino-6-chloro-N-(4-(3-(methoxymethyl)-4-methylpiperazin-1-yl)pyridin-3-yl)pyrazolo[1,5-a]pyrimidine-3-carboxamide] | ++ (Compounds with a Cisplatin sensitization value >0.02 μM but <0.2 μM are marked with “++.”)
Nc1nn2cc(Cl)cnc2c1C(=O)Nc1cnccc1N1CCN(C2CCC2)CC1 [I-N-48, 2-amino-6-chloro-N-(4-(4-cyclobutylpiperazin-1-yl)pyridin-3-yl)pyrazolo[1,5-a]pyrimidine-3-carboxamide] | ++ (Compounds with a Cisplatin sensitization value >0.02 μM but <0.2 μM are marked with “++.”)
CN(C)CCN1CCN(c2ccncc2NC(=O)c2c(N)nn3cc(Cl)cnc23)CC1 [I-N-49, 2-amino-6-chloro-N-(4-(4-(2-(dimethylamino)ethyl)piperazin-1-yl)pyridin-3-yl)pyrazolo[1,5-a]pyrimidine-3-carboxamide] | +++ (Compounds with a Cisplatin sensitization value of <0.02 μM are marked with “+++.”)
CN1CCN(c2cc(N)ncc2NC(=O)c2c(N)nn3cc(Cl)cnc23)CC1 [I-N-50, 2-amino-N-(6-amino-4-(4-methylpiperazin-1-yl)pyridin-3-yl)-6-chloropyrazolo[1,5-a]pyrimidine-3-carboxamide] | + (Compounds with a Cisplatin sensitization value >0.2 μM but <5 μM are marked with “+.”)
CN1CCN(c2cc(Cl)ncc2NC(=O)c2c(N)nn3cc(Cl)cnc23)CC1 [I-N-52, 2-amino-6-chloro-N-(6-chloro-4-(4-methylpiperazin-1-yl)pyridin-3-yl)pyrazolo[1,5-a]pyrimidine-3-carboxamide] | ++ (Compounds with a Cisplatin sensitization value >0.02 μM but <0.2 μM are marked with “++.”)
CN1CCN(c2ccncc2NC(=O)c2c(N)nn3cc(Cl)cnc23)CC1(C)C [I-N-53, 2-amino-6-chloro-N-(4-(3,3,4-trimethylpiperazin-1-yl)pyridin-3-yl)pyrazolo[1,5-a]pyrimidine-3-carboxamide] | ++ (Compounds with a Cisplatin sensitization value >0.02 μM but <0.2 μM are marked with “++.”)
CC1CN(c2ccncc2NC(=O)c2c(N)nn3cc(Cl)cnc23)CCN1C (stereo not drawn) [I-N-54, 2-amino-6-chloro-N-(4-(3,4-dimethylpiperazin-1-yl)pyridin-3-yl)pyrazolo[1,5-a]pyrimidine-3-carboxamide] | +++ (Compounds with a Cisplatin sensitization value of <0.02 μM are marked with “+++.”)
Nc1nn2cc(Cl)cnc2c1C(=O)Nc1cnccc1N1CCCC(N)C1 (stereo not drawn) [I-N-55, 2-amino-N-(4-(3-aminopiperidin-1-yl)pyridin-3-yl)-6-chloropyrazolo[1,5-a]pyrimidine-3-carboxamide] | ++ (Compounds with a Cisplatin sensitization value >0.02 μM but <0.2 μM are marked with “++.”)
Nc1nn2cc(Cl)cnc2c1C(=O)Nc1cnccc1N1CCN2CCC1CC2 [I-N-56, N-(4-(1,4-diazabicyclo[3.2.2]nonan-4-yl)pyridin-3-yl)-2-amino-6-chloropyrazolo[1,5-a]pyrimidine-3-carboxamide] | ++ (Compounds with a Cisplatin sensitization value >0.02 μM but <0.2 μM are marked with “++.”)
Cc1cncc(NC(=O)c2c(N)nn3cc(Cl)cnc23)c1N1CCN(C)CC1 [I-N-57, 2-amino-6-chloro-N-(5-methyl-4-(4-methylpiperazin-1-yl)pyridin-3-yl)pyrazolo[1,5-a]pyrimidine-3-carboxamide] | +++ (Compounds with a Cisplatin sensitization value of <0.02 μM are marked with “+++.”)
